The source of these data is patent US12459951B2, “Compounds that interact with RAS superfamily proteins for treatment of cancers, inflammatory diseases, rasopathies, and fibrotic disease” (SHY Therapeutics, LLC, priority 2022, dated 2025).

Read-outs that look alike come from different tables or passages of the source. A value given as a limit tells only on which side of the number the result lay.

The test system of experiment [1] is MiaPaca-2 (expressing KRAS G12C mutant). Briefly: Proliferation Assay (Cell Viability Assay). It counts as cell-based. The note with it: Homo sapiens, MIA PaCa-2. The method, boiled down:
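MiaPaca-2 cells (KRAS G12C) were grown in DMEM-high glucose with 10% FBS, seeded at 2000–5000 cells/well and cultured overnight. Compounds were added at 10 μM final, or as serial dilutions for IC50, in 0.3% DMSO/10% FBS for 2–4 days at 37 °C, 5% CO2. Viability was measured with CellTiter 96 Aqueous One and % inhibition calculated.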

The subject of experiment [2] is Smad2/Smad3 phosphorylation. Kind of experiment: Phospho-Smad2/3 Inhibition Assay (western blot), Panc-1. It counts as cell-based, human. Conditions: at 10 μM, Panc-1 pancreatic cancer cell line; starred symbols = activation. The method, boiled down:
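Panc-1 cells (KRas G12D), starved overnight in 0.5% FBS, treated 3 h at 37° C with compound at 10 μM final (0.3% DMSO) or serial dilutions for IC50, then stimulated with 10 ng/ml TGF-b1 for 1 h. Phospho-Smad2 (Ser465/467) and phospho-Smad3 (Ser423/425) detected by western blot.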
On the technique in general: A western blot detects proteins with antibodies after separation by electrophoresis.

In experiment [3] the test system is TNF-alpha. Briefly: TNF-alpha Quantification Assay (ELISA), LPS-stimulated RAW 264.7. It counts as cell-based. Also on record: inhibition: dose or concentration left out as unconfirmed. The note with it: Mus musculus, RAW264.7, read-out: TNFα: % inh. In general terms: In an ELISA, binding on a coated surface is turned into a signal by an enzyme label.
Setting [4] is: read-out: Proliferation in MiaPaca-2: IC50.

For `COc1cc(-c2cn3nc(-c4nccn4C)nc(Nc4cc(OC)ncn4)c3c2C)ccn1` [Compound 50, 6-(2-Methoxypyridin-4-yl)-N-(6-methoxypyrimidin-4-yl)-5-methyl-2-(1-methyl-1H-imidazol-2-yl)pyrrolo[2,1-f][1,2,4]triazin-4-amine], the IC50 in experiment [1] (setting [4]) is below 150 nM. In addition, the “% inh of Smad2/3 phosphorylation in Panc-1” value (shortened to “% inh”) in experiment [2] was “B (B = 26-45% inhibition)”. The inhibition at 10 µM in experiment [3] is 0%.

For the molecule `Cc1c(-c2ccn(C)n2)cn2nc(-c3nccn3C)nc(Nc3cc(-n4ccnc4)ccn3)c12` [Compound 245, N-(4-(1H-imidazol-1-yl)pyridin-2-yl)-5-methyl-2-(1-methyl-1H-imidazol-2-yl)-6-(1-methyl-1H-pyrazol-3-yl)pyrrolo[2,1-f][1,2,4]triazin-4-amine], the IC50 in experiment [1] (setting [4]) is below 150 nM. In addition, the “% inh” value in experiment [2] is listed as “B* (B* = 26-45% activation)”. Moreover, the inhibition at 10 µM in experiment [3] turned out to be 0%.

Consider `COc1ccc(Nc2nc(-c3nccn3C)nn3cc(-c4ccn(C(C)C)n4)c(C)c23)nn1` [Compound 74, 6-(1-Isopropyl-1H-pyrazol-3-yl)-N-(6-methoxypyridazin-3-yl)-5-methyl-2-(1-methyl-1H-imidazol-2-yl)pyrrolo[2,1-f][1,2,4]triazin-4-amine], for which, in experiment [1] (setting [4]), the IC50 lay within 150 to 500 nM. In experiment [2], the “% inh” value is listed as “A* (A* = 1-25% activation)”. The inhibition at 10 µM in experiment [3] fell in the range of 1 to 24%.

For `COc1cccc(-c2cn3nc(-c4nccn4C)nc(N[C@H]4C[C@H](OC)C4)c3c2-c2ccccc2)c1F` [Compound 42, 6-(2-Fluoro-3-methoxyphenyl)-N-((1r,3r)-3-methoxycyclobutyl)-2-(1-methyl-1H-imidazol-2-yl)-5-phenylpyrrolo[2,1-f][1,2,4]triazin-4-amine], in experiment [1] (setting [4]), the IC50 fell in the range of 510 to 1000 nM. Besides, the “% inh” value in experiment [2] was 0 (0 = 0% inhibition). Further, the inhibition at 10 µM in experiment [3] was in the range of 75 to 100%.

For `COc1cc(Nc2nc(-c3nccn3C)nn3cc(-c4ccn(C)n4)c(C)c23)n[nH]1` [Compound 252, N-(5-Methoxy-1H-pyrazol-3-yl)-5-methyl-2-(1-methyl-1H-imidazol-2-yl)-6-(1-methyl-1H-pyrazol-3-yl)pyrrolo[2,1-f][1,2,4]triazin-4-amine], the IC50 in experiment [1] (Proliferation assay, MiaPaca-2, read-out: MiaPaca-2 IC50 (nM) Pancreatic) was 10 to 50 nM; in experiment [1] (setting [4]), below 150 nM. Moreover, the “% inh” value in experiment [2] was “B* (B* = 26-45% activation)”. The inhibition at 10 µM in experiment [3] came to 0%.

Regarding `Cc1c(-c2ccn(C(C)C)n2)cn2nc(-c3nccn3C)nc(Nc3ccccn3)c12` [Compound 57, 6-(1-Isopropyl-1H-pyrazol-3-yl)-5-methyl-2-(1-methyl-1H-imidazol-2-yl)-N-(pyridin-2-yl)pyrrolo[2,1-f][1,2,4]triazin-4-amine], the IC50 in experiment [1] (setting [4]) was below 150 nM. Further, the “% inh” value in experiment [2] is recorded as “A* (A* = 1-25% activation)”. Moreover, the inhibition at 10 µM in experiment [3] came out at 0%.

Regarding `COc1cccc(Nc2nc(-c3nccn3C)nn3cc(-c4ccn(C(C)C)n4)c(-c4ccccc4)c23)n1` [Compound 23, 6-(1-Isopropyl-1H-pyrazol-3-yl)-N-(6-methoxypyridin-2-yl)-2-(1-methyl-1H-imidazol-2-yl)-5-phenylpyrrolo[2,1-f][1,2,4]triazin-4-amine], the IC50 in experiment [1] (setting [4]) is above 1000 nM. Besides, the “% inh” value in experiment [2] is 0 (0 = 0% inhibition). The inhibition at 10 µM in experiment [3] is 75 to 100%.

Turning to `COc1cccc(-c2cn3nc(-c4nccn4C)nc(N[C@H]4C[C@H](OC)C4)c3c2-c2ccccn2)c1C` [Compound 274, 6-(3-Methoxy-2-methylphenyl)-N-((1r,3r)-3-methoxycyclobutyl)-2-(1-methyl-1H-imidazol-2-yl)-5-(pyridin-2-yl)pyrrolo[2,1-f][1,2,4]triazin-4-amine], the IC50 in experiment [1] (setting [4]) fell in the range of 150 to 500 nM. The “% inh” value in experiment [2] was “D (D = 76-100% inhibition)”. Besides, the inhibition at 10 µM in experiment [3] is 75 to 100%.

With `Cc1c(-c2ccn(C)n2)cn2nc(-c3nccn3C)nc(Oc3cc(N)[nH]n3)c12` [Compound 262, 3-((5-Methyl-2-(1-methyl-1H-imidazol-2-yl)-6-(1-methyl-1H-pyrazol-3-yl)pyrrolo[2,1-f][1,2,4]triazin-4-yl)oxy)-1H-pyrazol-5-amine], in experiment [1] (setting [4]), the IC50 was above 1000 nM. Besides, in experiment [2], the “% inh” value is given as “B* (B* = 26-45% activation)”. In experiment [3], the inhibition at 10 µM is 0%.

`Cc1c(-c2ccn(C)n2)cn2nc(-c3nccn3C)nc(Nc3ccc(N4CCOCC4)cn3)c12` [Compound 247, 5-Methyl-2-(1-methyl-1H-imidazol-2-yl)-6-(1-methyl-1H-pyrazol-3-yl)-N-(5-morpholinopyridin-2-yl)pyrrolo[2,1-f][1,2,4]triazin-4-amine]: in experiment [1] (setting [4]), the IC50 lay in the range of 510 to 1000 nM. The “% inh” value in experiment [2] is listed as “C* (C* = 46-75% activation)”. In experiment [3], the inhibition at 10 µM was in the range of 50 to 74%.

For `Cc1c(-c2ccn(C)n2)cn2nc(-c3nccn3C)nc(Nc3cc(C(F)F)[nH]n3)c12` [Compound 258, N-(5-(Difluoromethyl)-1H-pyrazol-3-yl)-5-methyl-2-(1-methyl-1H-imidazol-2-yl)-6-(1-methyl-1H-pyrazol-3-yl)pyrrolo[2,1-f][1,2,4]triazin-4-amine], the IC50 in experiment [1] (setting [4]) is above 1000 nM. Besides, in experiment [2], the “% inh” value is recorded as “A* (A* = 1-25% activation)”. Also, in experiment [3], the inhibition at 10 µM stood at 0%.

As for `Cc1c(-c2ccn(C)n2)cn2nc(-c3nccn3C)nc(Nc3cc(-c4ccccn4)ccn3)c12` [Compound 248, N-([2,4′-Bipyridin]-2′-yl)-5-methyl-2-(1-methyl-1H-imidazol-2-yl)-6-(1-methyl-1H-pyrazol-3-yl)pyrrolo[2,1-f][1,2,4]triazin-4-amine], the IC50 in experiment [1] (setting [4]) was below 150 nM. Further, in experiment [2], the “% inh” value is recorded as “D* (D* = 76-100% activation)”. In addition, the inhibition in experiment [3] was in the range of 25 to 49%.

Take `COC1CCCN(c2nc(-c3ccccn3)nn3cc(-c4ccn(C(C)C)n4)c(-c4ccccc4)c23)C1` (racemic) [Compound 27, rac 6-(1-Isopropyl-1H-pyrazol-3-yl)-4-(3-methoxypiperidin-1-yl)-5-phenyl-2-(pyridin-2-yl)pyrrolo[2,1-f][1,2,4]triazine]: the IC50 in experiment [1] (setting [4]) is above 1000 nM. In addition, the “% inh” value in experiment [2] is listed as “D (D = 76-100% inhibition)”. The inhibition at 10 µM in experiment [3] lay within 25 to 49%.

In the case of `Cc1c(-c2ccn(C(C)C)n2)cn2nc(-c3nccn3C)nc(Nc3nnc(C4CC4)o3)c12` [Compound 67, 5-Cyclopropyl-N-(6-(1-isopropyl-1H-pyrazol-3-yl)-5-methyl-2-(1-methyl-1H-imidazol-2-yl)pyrrolo[2,1-f][1,2,4]triazin-4-yl)-1,3,4-oxadiazol-2-amine], the IC50 in experiment [1] (setting [4]) was above 1000 nM. For the same molecule, in experiment [2], the “% inh” value is listed as 0 (0 = 0% inhibition). The inhibition at 10 µM in experiment [3] lay within 50 to 74%.

For `Cc1c(-c2ccn(C(C)C)n2)cn2nc(-c3nccn3C)nc(Nc3cc(C4CC4)n[nH]3)c12` [Compound 68, N-(3-Cyclopropyl-1H-pyrazol-5-yl)-6-(1-isopropyl-1H-pyrazol-3-yl)-5-methyl-2-(1-methyl-1H-imidazol-2-yl)pyrrolo[2,1-f][1,2,4]triazin-4-amine], the IC50 in experiment [1] (setting [4]) is below 150 nM. For the same molecule, the “% inh” value in experiment [2] was “A* (A* = 1-25% activation)”. For the same molecule, the inhibition at 10 µM in experiment [3] lay within 25 to 49%.

Turning to `COc1cccc(-c2cn3nc(-c4nccn4C)nc(N[C@H]4C[C@H](OC)C4)c3c2-c2ccccc2)c1Cl` [Compound 32, 6-(2-Chloro-3-methoxyphenyl)-N-((1r,3r)-3-methoxycyclobutyl)-2-(1-methyl-1H-imidazol-2-yl)-5-phenylpyrrolo[2,1-f][1,2,4]triazin-4-amine], the IC50 in experiment [1] (setting [4]) lay within 150 to 500 nM. The “% inh” value in experiment [2] is “D (D = 76-100% inhibition)”. For the same molecule, in experiment [3], the inhibition at 10 µM lay in the range of 75 to 100%.

As to `Cn1ccnc1-c1nc(OCCN2CCCC2)c2c(-c3ccccc3)ccn2n1` [Compound 41, 2-(1-Methyl-1H-imidazol-2-yl)-5-phenyl-4-(2-(pyrrolidin-1-yl)ethoxy)pyrrolo[2,1-f][1,2,4]triazine], the IC50 in experiment [1] (setting [4]) was above 1000 nM. For the same molecule, the “% inh” value in experiment [2] was “A* (A* = 1-25% activation)”. The inhibition at 10 µM in experiment [3] was 1 to 24%.

Take `Cc1c(-c2ccn(C)n2)cn2nc(-c3nccn3C)nc(Nc3cc(-n4ccnc4C)ccn3)c12` [Compound 246, 5-Methyl-N-(4-(2-methyl-1H-imidazol-1-yl)pyridin-2-yl)-2-(1-methyl-1H-imidazol-2-yl)-6-(1-methyl-1H-pyrazol-3-yl)pyrrolo[2,1-f][1,2,4]triazin-4-amine]: the IC50 in experiment [1] (setting [4]) lay within 150 to 500 nM. Besides, in experiment [2], the “% inh” value is “C* (C* = 46-75% activation)”. Also, the inhibition at 10 µM in experiment [3] was determined as 0%.

As to `COc1cccc(-c2cn3nc(-c4nccn4C)nc(N[C@H]4C[C@H](OC)C4)c3c2-c2ccn(C)n2)c1F` [Compound 47, 6-(2-Fluoro-3-methoxyphenyl)-N-((1r,3r)-3-methoxycyclobutyl)-2-(1-methyl-1H-imidazol-2-yl)-5-(1-methyl-1H-pyrazol-3-yl)pyrrolo[2,1-f][1,2,4]triazin-4-amine], in experiment [1] (setting [4]), the IC50 was above 1000 nM. Also, the “% inh” value in experiment [2] was “D (D = 76-100% inhibition)”. Also, the inhibition at 10 µM in experiment [3] was 1 to 24%.
